Among the data in ChEMBL document CHEMBL1147267, “New strongylophorines from the Okinawan marine sponge Petrosia (Strongylophora) corticata” (J Nat Prod, 2003) are IC50 values, retold here.

A value given as a limit tells only on which side of the number the result lay.

The assay deals with HeLa. The assay is described as follows: Cytotoxicity against human HeLa cells. The format is functional, cell-based.
Take `C[C@@]12CC[C@@H]3[C@]4(CCC[C@]3(C)C(=O)OC4)[C@H]1CC[C@]1(C)Oc3ccc(O)cc3C[C@@H]21` [STRONGYLOPHORIN 2]: the IC50 (commonly the concentration at which inhibition is half-maximal) is over 100 µM.

In turn, `C[C@]12CCC[C@](C)(C(=O)O)[C@@H]1CC[C@]1(C)[C@@H]2CC[C@]2(C)Oc3ccc(O)cc3C[C@@H]12` [Strongylophorin-3] yielded an IC50 of 45.2 µM.

`C[C@]12CCC[C@](C)(C=O)[C@@H]1CC[C@]1(C)[C@@H]2CC[C@]2(C)Oc3ccc(O)cc3C[C@@H]12` [Strongylophorin-4] yielded an IC50 of 50.5 µM.

Consider `CC1(C)CCC[C@]2(C)[C@H]3CC[C@]4(C)Oc5ccc(O)cc5C[C@H]4[C@]3(C)CC[C@@H]12` [Strongylophorin-22], for which half-maximal inhibition (IC50) required 26.6 µM.

Consider `CC1(C)CCC[C@@]2(CO)[C@H]1CC[C@]1(C)[C@@H]2CC[C@]2(C)Oc3ccc(O)cc3C[C@@H]12` [Strongylophorin-23], for which the 50% inhibitory concentration (IC50) stood at 62 µM.

For the molecule `COc1ccc2c(c1)C[C@H]1[C@]3(C)CC[C@@H]4[C@](C)(CCC[C@]4(C)C(=O)O)[C@H]3CC[C@]1(C)O2` [Strongylophorine-1], the midpoint of inhibition, the IC50, lay at 49.1 µM.

Molecule `CC1(C)CCC[C@@]2(C=O)[C@H]1CC[C@]1(C)[C@@H]2CC[C@]2(C)Oc3ccc(O)cc3C[C@@H]12` [Strongylophorine-24] displayed a concentration for half-maximal inhibition (IC50) of over 100 µM.
